Measurements as given in the NIST ThermoML archive (doi:10.1016/j.tca.2006.06.018).
Numbers after ± are expanded uncertainties. Blank lines part the entries; values can stand above or below the compound they belong to.

How the values were obtained:
[1] = Molar enthalpy of transition or fusion; details: DSC
[2] = DTA

SMILES: CCCCCCCCOCn1cc[n+](COCCCCCCCC)c1.O=S(=O)([N-]S(=O)(=O)C(F)(F)F)C(F)(F)F
- Molar enthalpy of transition or fusion ([1]; Crystal 1): 8.17 ± 0.229 kcal/mol
- Triple point temperature ([2]; Crystal 1): 287.7 ± 2.1 K

SMILES: CC[N+](C)(C)CCO.F[P-](F)(F)(F)(F)F
- Molar enthalpy of transition or fusion ([1]; Crystal 1): 2.53 ± 0.0908 kcal/mol
- Triple point temperature ([2]; Crystal 1): 272 ± 2.1 K

- Molar enthalpy of transition or fusion ([1]; Crystal 1): 3.16 ± 0.105 kcal/mol
- Triple point temperature ([2]; Crystal 1): 359.3 ± 2.1 K
- Triple point temperature ([2]; Metastable crystal): 187.3 ± 0.5 K
SMILES: CCCC[N+](C)(C)CCO.[Br-] [N-(2-hydroxyethyl)-N,N-dimethylbutanaminium bromide]

SMILES: CCCCCCCCCCOn1cc[n+](OCCCCCCCCCC)c1C.O=S(=O)([N-]S(=O)(=O)C(F)(F)F)C(F)(F)F
- Molar enthalpy of transition or fusion ([1]; Crystal 1): 19 ± 0.502 kcal/mol
- Triple point temperature ([2]; Crystal 1): 303.1 ± 2.1 K

SMILES: CC[N+](C)(C)CCO.N#C[N-]C#N [N-ethyl-2-hydroxyethyl-N,N-dimethylammonium dicyanamide]
- Molar enthalpy of transition or fusion ([1]; Crystal 1): 2.06 ± 0.0789 kcal/mol
- Triple point temperature ([2]; Crystal 1): 282.7 ± 2.1 K
- Triple point temperature ([2]; Metastable crystal): 168.4 ± 0.5 K

SMILES: CC[N+](C)(C)CCO.F[B-](F)(F)F
- Molar enthalpy of transition or fusion ([1]; Crystal 1): 1.23 ± 0.0598 kcal/mol
- Molar enthalpy of transition or fusion ([1]; Crystal 2): 0.28 ± 0.0382 kcal/mol
- Molar enthalpy of transition or fusion ([1]; Crystal 3): 0.731 ± 0.0478 kcal/mol
- Triple point temperature ([2]; Crystal 1): 426.8 ± 2.1 K
- Triple point temperature ([2]; Crystal 2): 311.5 ± 0.5 K
- Triple point temperature ([2]; Crystal 3): 252.8 ± 0.5 K
- Triple point temperature ([2]; Metastable crystal): 146 ± 1 K

SMILES: CCCCOCn1cc[n+](COCCCC)c1.F[B-](F)(F)F [1,3-bis(butoxymethyl)-1H-imidazolium tetrafluoroborate]
- Molar enthalpy of transition or fusion ([1]; Crystal 1): 2.04 ± 0.0789 kcal/mol
- Molar enthalpy of transition or fusion ([1]; Crystal 2): 2.6 ± 0.0908 kcal/mol
- Triple point temperature ([2]; Crystal 1): 281.4 ± 2.1 K
- Triple point temperature ([2]; Crystal 2): 267.4 ± 0.5 K
